This note sets out measurements from patent US8859620B2, “Phthalanilate compounds and methods of use” (University of Notre Dame du Lac, priority 2009, dated 2014).

The term MIC denotes the smallest concentration in the dilution series that meets the test's criterion for growth inhibition.

Experiment [1] has as its system Enterococcus faecalis ATCC 29212. Briefly: MIC, Table 12. It counts as cell-based. Conditions: ATCC29212; Enterococcus faecalis ATCC 29212; Brain Heart Infusion Broth; inoculum about 1.5×10^5 CFU/mL; read-out: MIC. Here is the method:
(§1) Table 12 illustrates the results and the minimal inhibitory concentration (MIC) for S. aureus, Enterococcus faecalis, Pseudomonas aeruginosa, Klebsiella pneumonia, and Proteus mirabilis. The inoculum is about 1.5×10^5 CFU/mL. The minimal inhibitory concentrations (MIC) were done in Muller-Hinton II Broth with the exception of Enterococcus faecalis ATCC 29212, which was done in Brain Heart Infusion Broth. The concentration of DMSO at 200 μg/mL was 10%.

Experiment [2] deals with Klebsiella pneumonia ATCC 33495. The experiment can be described thus: MIC, Table 12. The conditions noted are these: Klebsiella pneumoniae, ATCC33495, Muller-Hinton II Broth. It counts as cell-based. Here is the method:
as §1

The test system of experiment [3] is Proteus mirabilis ATCC 35659. Briefly: MIC, Table 12. It counts as cell-based. The conditions noted are these: ATCC35659, Muller-Hinton II Broth. Here is the method: as §1
For experiment [4], the system named is Pseudomonas aeruginosa ATCC 27853. The experiment can be described thus: MIC, Table 12. Conditions: ATCC27853, Muller-Hinton II Broth. It is filed as cell-based. Here is the method:
as §1

Experiment [5] deals with Staphylococcus aureus (COLVA). Briefly: MIC, Table 12. It counts as cell-based. The conditions noted are these: Staphylococcus aureus. Here is the method:
as §1

The subject of experiment [6] is Staphylococcus aureus ATCC 29213. The experiment can be described thus: MIC, Table 12. Conditions: ATCC29213; Staphylococcus aureus ATCC 29213; Muller-Hinton II Broth; read-out: MIC. It is filed as cell-based. Here is the method: as §1
Experiment [7] deals with Staphylococcus aureus NRS1 (Mec^r. Vani). The experiment can be described thus: MIC, Table 12. It counts as cell-based. The conditions noted are these: Staphylococcus aureus NRS1 (Mec^r. Vani); Muller-Hinton II Broth; read-out: MIC. Here is the method:
as §1

In experiment [8] the test system is Staphylococcus aureus NRS100 (COL). The experiment can be described thus: MIC, Table 12. It counts as cell-based. Conditions: Staphylococcus aureus NRS100 (COL); Muller-Hinton II Broth; read-out: MIC. Here is the method:
as §1

For experiment [9], the system named is Escherichia coli ATCC 29194. The experiment can be described thus: MIC, Table 12. It counts as cell-based. Conditions: ATCC29194, Muller-Hinton II Broth.
Experiment [10] concerns the target TEM-1 (class A β-lactamase) (Escherichia coli, UniProt P62593). Briefly: β-Lactamase assay (nitrocefin colour change), TEM-1. It is filed as biochemical. Conditions: for TEM-1: Table 10, class symbols x/xx/xxx, key not given. The method, boiled down: (§2)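 β-Lactamases (10 nM) preincubated with inhibitor 5 min at room temperature, pH 7.0 phosphate, then 100 μM nitrocefin; colour change read after 20 min. B1aR surface domain (1 μM) with inhibitor 20 min, then 20 μM BOCILLIN FL 5 min at 37 °C, SDS-PAGE fluorescence. PBP2 per Villegas-Esterada.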

The target in experiment [11] is P99 (class C β-lactamase) (Enterobacter cloacae, UniProt P05364). The experiment can be described thus: β-Lactamase assay (nitrocefin colour change), P99. It is filed as biochemical. Conditions: for P99: Table 10, class symbols x/xx/xxx, key not given; for IC50: nitrocefin 100 μM, 10 nM enzyme, 5 min pre-incubation, read-out: IC50s P99. The method, boiled down:
as §2

Experiment [12] concerns the target OXA-10 (class D β-lactamase) (Pseudomonas aeruginosa, UniProt P14489). Briefly: β-Lactamase assay (nitrocefin colour change), OXA-10. It counts as biochemical. The conditions noted are these: for OXA-10: Table 10, class symbols x/xx/xxx, key not given; for IC50: nitrocefin 100 μM, 10 nM enzyme, 5 min pre-incubation, read-out: IC50s OXA-10. The procedure, abridged:
as §2

A further experiment addresses surface domain of B1aR (Staphylococcus aureus, UniProt P18357). The experiment can be described thus: B1aR assay (BOCILLIN FL labeling, SDS-PAGE). It is filed as binding, Staphylococcus aureus (MRSA). The conditions noted are these: Table 10; class symbols x/xx/xxx, key not given. Here is the method: β-Lactamase Assays (TEM-1, P99, and OXA-10): The activity of the compounds of the invention (inhibitors) toward β-lactamases was evaluated using 96 well plates. The reaction mixture included 10 mM sodium phosphate, pH 7.0, 150 mM sodium chloride, 0.01% Triton X-100, 100 μM nitrocefin, 10 nM of β-lactamases (class A: TEM-1; class C: P99, or class D: OXA-10), and variable concentrations of the inhibitors in a total volume of 100 μL. β-Lactamases were pre-incubated with the compounds at room temperature for 5 minutes, and the assay was initiated by the addition of nitrocefin. The inhibition of the enzyme activity by the compounds was determined by monitoring color change (from yellow to red) of nitrocefin after 20 minutes. Stock solutions of the compounds were prepared in dimethyl sulfoxide (DMSO). No more than 5% DMSO was present in assays, unless noted otherwise. B1aR Assay: The surface domain of B1aR (1 μM) was added to each inhibitor (at various concentrations) in 100 mM sodium phosphate, 50 mM sodium bicarbonate, at pH 7.0. The reaction mixtures were incubated at room temperature for 20 minutes. BOCILLIN FL, a fluorogenic ligand, was added to a concentration of 20 μM in a final volume of 20 μL. The mixtures were incubated at 37° C. for 5 minutes, at which point the reactions were quenched by the addition of 15 μL of the SDS sample buffer (125 mM Tris, 4% SDS, 20% glycerol, 2% 2-mercaptoethanol, pH 6.8), and were boiled for 4 minutes. The samples were loaded onto 15% SDS-PAGE, the gel was developed and scanned using a Storm 840® Fluorimager. The fluorescent bands of BOCILLIN FL-labeled B1aR^S were analyzed by Image Quant 5.2 software. PBP2 Assay: The PBP2 assay was performed according to the methods of Villegas-Esterada et al. (J. Am. Chem. Soc. 2008, 130, 9212-9213).

In a further experiment the test system is S. aureus NRS100 (Mec^R). Briefly: MIC against S. aureus NRS100 (Table 14). It counts as cell-based, Staphylococcus aureus. The conditions noted are these: Staphylococcus aureus, compounds dissolved in DMSO or 1% sodium carbonate, read-out: MIC. Here is the method:
The recited compounds were dissolved in DMSO or in 1% sodium carbonate and transferred into micro titer plate to final concentration of 1000 μg/mL.

Converted amounts (≈) assume the structure as drawn.

Chain of TEM-1 (class A β-lactamase) (P62593 24-286 limits assumed): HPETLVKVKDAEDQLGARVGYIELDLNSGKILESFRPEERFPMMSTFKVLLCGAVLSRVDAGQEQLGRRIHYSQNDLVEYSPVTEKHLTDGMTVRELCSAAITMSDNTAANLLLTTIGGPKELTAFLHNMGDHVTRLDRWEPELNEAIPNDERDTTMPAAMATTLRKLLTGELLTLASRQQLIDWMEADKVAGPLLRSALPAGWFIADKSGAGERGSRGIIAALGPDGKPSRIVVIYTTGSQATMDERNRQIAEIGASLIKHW
Chain of OXA-10 (class D β-lactamase) (P14489 20-266, species assumed): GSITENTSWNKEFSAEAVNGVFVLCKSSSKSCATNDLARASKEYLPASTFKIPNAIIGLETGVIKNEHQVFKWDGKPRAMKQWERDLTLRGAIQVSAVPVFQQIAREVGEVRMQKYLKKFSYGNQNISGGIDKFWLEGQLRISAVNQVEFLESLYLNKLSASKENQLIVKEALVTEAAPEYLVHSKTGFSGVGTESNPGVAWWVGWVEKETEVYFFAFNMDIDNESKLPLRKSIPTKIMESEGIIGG
Chain of P99 (class C β-lactamase) (P05364 21-381): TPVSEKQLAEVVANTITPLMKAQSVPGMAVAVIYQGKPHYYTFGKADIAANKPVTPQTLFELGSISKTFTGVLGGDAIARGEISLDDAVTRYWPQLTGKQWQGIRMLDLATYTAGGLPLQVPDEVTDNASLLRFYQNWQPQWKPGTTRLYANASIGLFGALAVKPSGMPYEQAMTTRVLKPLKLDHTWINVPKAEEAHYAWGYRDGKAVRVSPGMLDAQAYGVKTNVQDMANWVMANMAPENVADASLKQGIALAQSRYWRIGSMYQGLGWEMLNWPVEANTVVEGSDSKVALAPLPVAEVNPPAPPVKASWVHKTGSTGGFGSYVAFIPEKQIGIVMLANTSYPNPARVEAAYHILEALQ
Chain of surface domain of B1aR (P18357 331-585): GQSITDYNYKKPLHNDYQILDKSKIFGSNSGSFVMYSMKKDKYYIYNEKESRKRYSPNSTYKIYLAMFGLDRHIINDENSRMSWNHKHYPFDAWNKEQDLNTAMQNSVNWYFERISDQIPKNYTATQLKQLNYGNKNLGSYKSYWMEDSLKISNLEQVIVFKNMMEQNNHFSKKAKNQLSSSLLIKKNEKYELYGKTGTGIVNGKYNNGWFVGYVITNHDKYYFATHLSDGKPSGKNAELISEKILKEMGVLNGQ

Take `O=C(O)c1c(Br)c(Br)c(Br)c(Br)c1C(=O)Nc1ccc(OCc2ccccc2)c(Cl)c1` [Compound 239]: the MIC worked out at 200 µg/mL (≈ 287 µM) in experiment [1]; 200 µg/mL (≈ 287 µM) in [2]; 400 µg/mL (≈ 574 µM) in experiment [3]; 200 µg/mL (≈ 287 µM) in experiment [4]; 25 µg/mL (≈ 35.8 µM) in [5]; 25 µg/mL (≈ 35.8 µM) in [6]. Besides, the MIC turned out to be 50 µg/mL (≈ 71.7 µM) in experiment [7], 100 µg/mL (≈ 143 µM) in experiment [8] and 400 µg/mL (≈ 574 µM) in experiment [9].

Regarding `O=C(O)c1c(Cl)c(Cl)c(Cl)c(Cl)c1C(=O)Nc1ccc(OCc2ccccc2)c(Cl)c1` [Compound 253], the IC50 was 32.3 ± 5.9 µM in experiment [10], 105 ± 8.7 µM in experiment [11] and 222 ± 17 µM in experiment [12]. For the same compound, the TEM-1 entry in experiment [10] is “xxx”. In [11], the P99 entry is “xxx”. Moreover, the OXA-10 entry in experiment [12] was “xxx”. The BlaR result at surface domain of B1aR is given as “xx”. The MIC in experiment [1] worked out at 200 µg/mL (≈ 385 µM); in experiment [2], 200 µg/mL (≈ 385 µM); in experiment [3], 400 µg/mL (≈ 770 µM); in [4], 200 µg/mL (≈ 385 µM); in experiment [5] it was 50 µg/mL (≈ 96.2 µM); in experiment [6], 50 µg/mL (≈ 96.2 µM). Moreover, the MIC in experiment [7] is 50 µg/mL (≈ 96.2 µM); in experiment [8] it was 50 µg/mL (≈ 96.2 µM); in [9], 400 µg/mL (≈ 770 µM); with S. aureus NRS100 (Mec^R) it was above 16 µg/mL.

With `CCCCCCCCOc1ccc(NC(=O)c2c(Cl)c(Cl)c(Cl)c(Cl)c2C(=O)O)cc1` [Compound 265], the IC50 in experiment [10] came to 3.6 ± 0.5 µM; in experiment [11] it was 10.3 ± 0.3 µM; in [12], 9.9 ± 0.8 µM. For the same compound, the TEM-1 result in [10] is recorded as “xxx”. The P99 entry in [11] is “xxx”. Moreover, in experiment [12], the OXA-10 result is recorded as “xxx”. In addition, the MIC stood at 6 µg/mL (≈ 11.8 µM) in [1]; 200 µg/mL (≈ 394 µM) in experiment [2]; 200 µg/mL (≈ 394 µM) in [3]; 200 µg/mL (≈ 394 µM) in experiment [4]; 6 µg/mL (≈ 11.8 µM) in [5]; 6 µg/mL (≈ 11.8 µM) in [6]. For the same compound, the figures for the MIC in [7], in experiment [8] and in experiment [9] were 6 µg/mL (≈ 11.8 µM), 6 µg/mL (≈ 11.8 µM) and 200 µg/mL (≈ 394 µM), respectively.

Take `CCCCCCCCOc1ccc(NC(=O)c2c(Br)c(Br)c(Br)c(Br)c2C(=O)O)cc1` [Compound 274]: the figures for the IC50 in [10], in [11] and in experiment [12] were 2.4 ± 0.1 µM, 3.1 ± 0.5 µM and 5.5 ± 0.5 µM, respectively. Also, the TEM-1 result in [10] is given as “xxx”. The P99 result in experiment [11] was “xxx”. In addition, the OXA-10 result in experiment [12] is given as “xxx”. For the same compound, the minimal inhibitory concentration (MIC) in experiment [1] was found to be 100 µg/mL (≈ 146 µM); in experiment [2] it was 200 µg/mL (≈ 292 µM); in experiment [3] it was 400 µg/mL (≈ 584 µM); in [4], 200 µg/mL (≈ 292 µM); in experiment [5], 3 µg/mL (≈ 4.38 µM); in experiment [6], 3 µg/mL (≈ 4.38 µM). For the same compound, the minimal inhibitory concentration (MIC) in experiment [7] is 3 µg/mL (≈ 4.38 µM); in experiment [8] it was 3 µg/mL (≈ 4.38 µM); in [9] it was 400 µg/mL (≈ 584 µM).
